Measurements reported in US6417182B1, “Pharmaceutical compositions comprising metal complexes” (AnorMED Inc., priority 1993, dated 2002).

How the values were obtained:
[1] = test system: rat tail artery; assay: ex vivo rat tail artery perfusion test (vasoconstriction by removal of endogenous NO); design: species or system Wistar rats; settings: for vasoconstriction on application of test compound (in words): 10 μM and 100 μM (Example 26 also 1000 μM); for reversibility of vasoconstriction: washout with Krebs solution
Source text: In the ex vivo tests, segments of rat tail artery (0.8-1.5 cm) were dissected free from normotensive adult Wistar rats. The arteries were internally perfused with Krebs solution (mM: NaCl 118, KCl 4.7, NaHCO3, 25, NaH2PO4 1.15, CaCl2 2.5, MgCl2 1.1, glucose 5.6 and gassed with 95% O2/5% CO2 to maintain a pH of 7.4) in a constant flow perfusion apparatus. A differential pressure transducer located upstream of the vessel detected changes in back pressure. The rat tail artery preparation was pre-contracted with 6.5 μM phenylephrine to give a physiologically normal pressure of 100-120 mm Hg. The pre-contracted vessels were then perfused with the test compound. The arteries were perfused with Krebs solution between applications of test compound to wash out the test compound.
Pressure changes in the system served to indicate artery vasoconstriction. The vasoconstriction is a direct result of the removal of endogenous nitric oxide (edrf) from the endothelial cells of the rat tail artery.

[2] = test system: murine (RAW264) macrophage cell lines; assay: in vitro cell culture test: available nitric oxide (nitrite+nitrate, Griess) in activated macrophages; assay type: cell-based; settings: up to 100 μM
Method: In the in vitro cell culture tests, murine (RAW264) macrophage cell lines, which can be induced to produce nitric oxide, were seeded, 10^6 cells/well, onto 24 well culture plates of 2 ml volume per well, in Eagles modified minimal essential medium (MEM) plus 10% foetal bovine serum without phenol red.
The cells were activated to produce nitric oxide, with 10 μg/ml lipopolysaccharide and 100 units/ml interferon γ for 18 hours. Concurrently, test compounds made up in MEM were added at non-cytotoxic concentrations. […]
Background nitric oxide was assessed by measurement of nitrate and nitrite in cells which were not activated. […]
Nitric oxide was determined by measurement of nitrate and nitrite in the cell supernatant These anions are the stable end-products of reactions of NO in solution. […] Nitrite was determined using the Griess reaction in which nitrite reacts with 1% sulphanilamide in 5% H3PO4/0.1% naphthylethylenediamine dihydrochloride to form a chromophore absorbing at 540 nm Nitrate was determined by reducing nitrate to nitrite with a bacterial nitrate reductase from Pseudomonas oleovorans and then measuring nitrite with the Griess reaction. […] The effect of test compounds on available nitric oxide (measured as nitrite+nitrate) was determined. […]

[3] = in vitro NO uptake test (manometric pressure decrease; IR spectrum of freeze-dried product); settings: aqueous solution under argon, 20-24° C., NO gas in headspace, pressure recorded over one hour
Method: The resulting solution was placed in a three-necked pear-shaped flask and stirred by a magnetic stirrer at constant speed of 1000 rpm, at a constant temperature in the range 20° C.-24° C. A manometer was attached to the flask, and purified, dried nitric oxide gas (known volume in the range 3-5 cm^3) was introduced via a septum, using a gas syringe, at atmospheric pressure into the headspace above the reaction solution. The pressure within the flask was recorded periodically over a period of one hour.
A control experiment was carried out according to the above but without any complex present.
On completion of each in vitro test, the reaction solution was freeze-dried. An infrared spectrum of the freeze-dried product provided information on metal-NO bond formation.

Row | Compound | vasoconstriction on application of test compound (in words) [1] | reversibility of vasoconstriction [1] | % Vasoconstriction ([1]; 10 μM, artery pre-contracted with 6.5 μM phenylephrine) [%] | dose dependence of reduction of available nitric oxide [2] | pressure decrease indicating binding of NO to the metal compound [3]
1 | CC(=O)C=C(C)[O-].O=C([O-])CN(CCN(CC(=O)[O-])CC(=O)O)CC(=O)O.[Ru+3] [Example 2, [Ru(H2edta)(acac)]] | dose-dependent vasoconstriction | reversible by washout with Krebs solution | – | – | –
2 | [Ru(NH3)5Cl]Cl2 [Example 15] | dose-dependent vasoconstriction | reversible by washout with Krebs solution | 16 | – | –
3 | Cc1occc(=O)c1[O-].Cc1occc(=O)c1[O-].Cc1occc(=O)c1[O-].[Ru+3] [Example 26, [Ru(maltol)3]] | dose-dependent vasoconstriction | reversible by washout with Krebs solution | – | – | –
4 | O.O.O=C([O-])CN(CCN(CC(=O)[O-])CC(=O)O)CC(=O)[O-].[Cl-].[K+].[Ru+3] [Example 1, K[Ru(Hedta)Cl]2H2O] | – | – | – | reduced in a dose-dependent fashion | –
5 | O.O=C([O-])CN(CCO)CCN(CC(=O)[O-])CC(=O)[O-].[Cl-].[K+].[Ru+3] [Example 3, K[Ru(hedtra)Cl]H2O] | dose-dependent vasoconstriction | reversible by washout with Krebs solution | – | – | –
6 | O.O=C([O-])CN(CCN(CC(=O)[O-])CC(=O)O)CCN(CC(=O)[O-])CC(=O)O.[Cl-].[K+].[Ru+3] [Example 8, K[Ru(H2dtpa)Cl]H2O] | – | – | – | – | pressure decrease indicated binding of NO
7 | CC(=O)[O-].CC(=O)[O-].CC(=O)[O-].CC(=O)[O-].[Cl-].[Ru+3].[Ru+3] [Example 14, [Ru2(OAc)4]Cl] | dose-dependent vasoconstriction | reversible by washout with Krebs solution | – | – | –
8 | O.O=C([O-])CN(CC(=O)[O-])CC(=O)O.O=C([O-])CN(CC(=O)[O-])CC(=O)O.O=C([O-])CN(CC(=O)[O-])CC(=O)O.O=C([O-])CN(CC(=O)[O-])CC(=O)O.[K+].[K+].[Ru+3].[Ru+3] [Example 7, K[Ru(Hnta)2]½H2O] | – | – | – | – | pressure decrease indicated binding of NO
